Assay results: US20050112573A1, “Method of detecting toxic substance” (priority 2001, published 2005)

Test system: yeast genes (level of expressed mRNA)
Assay: DNA chip analysis of expressed mRNA of yeast genes after 2 h culture with a toxic chemical substance
Type: cell-based, Saccharomyces cerevisiae S288C
Experimental: Yeast (Saccharomyces cerevtisiae S288C (α SUC2mal mel gap2 CUP1)) were cultured at 25° C. on YPD medium (yeast extract 1%, polypepton 2%, glucose 2%). One of toxic chemical substances was added to the cell at logarithmic growth phase, and the cell was further cultured for two hours. Cell was cultured without any chemical substance in the same condition, and was used as control. Concentrations of the chemical substances were defined to inhibit the growth of the yeast but not lead to death.
After the completion of cultivation, the culture was centrifuged to collect the cells. To the cells, sodium acetate buffer (50 mM sodium acetate, 10 mM EDTA, 1% SDS) was added, and the mixture was shaken at 65° C. for five minutes, followed by returning to room temperature, and obtaining the supernatant, which procedure was repeated two times. To the supernatant, ½ amount of a solution of phenol/chloroform was added, and the mixture was centrifuged to give a supernatant, which was added with an equal amount of chloroform, and the mixture was centrifuged to give a supernatant. To the supernatant, an equal amount of isopropanol containing 0.3 M sodium acetate was added, and the mixture was allowed to stand at room temperature for 30 minutes, after which the mixture was centrifuged to give a sediment of the whole RNAs. Seventy % ethanol was added to the sediment, and the mixture was again centrifuged to give a sediment, which was then dried and dissolved in water. mRNA was isolated from the whole RNAs as followings. In view of the fact that a poly A chain is attached to the 3′ terminus of mRNA, a polynucleotide having a poly T structure which was immobilized on the surface of latex beads was used to trap the mRNA, and then the mRNA was washed and eluted with spine column (Oligotex-dT30<Super>mRNA Purification Kit, Takara). Reverse transcription of the mRNA was conducted with a reverse transcriptase (Super Script II Reverse Transcriptase; catalogue No. 18064-014, GibcoBRL) using fluorescence-labeled nucleotides to give cDNAs that were introduced with Cy3-dUTP or Cy5-dUTP during the reverse transcription.
The labeled cDNAs were dissolved in TE buffer (10 mM Tris-HCl/1 mM EDTA, pH8.0), and the solution was dropped on the DNA chip containing the whole genes of yeast (DNA Chip Research Inc. Japan) so that the cDNAs were hybridized on the DNA chip at 65° C. for over 12 hours. The fluoresces intensity of the DNA chip was read with a scanner, and the ratio relative to the fluorescence intensity resulting from the absence of chemical substance was estimated as the following, which is shown in Tables 1 to 9: [formula]
In the Tables, “Intensity” indicated in the rightmost column is a value of the level of expressed mRNA of each gene in control cells as divided by the average level of the expressions of the whole genes.

COc1cc(CNC(=O)CCCCC=CC(C)C)ccc1O [(12), 8-methyl-N-vanillyl-6-nonenamide]
The level of expressed mRNA in the presence of chemical substance/absence: YDR133C (gene YDR133C): 0.3 | The level of expressed mRNA in the presence of chemical substance/absence: YDR140W (gene YDR140W): 1.1 | The level of expressed mRNA in the presence of chemical substance/absence: YDR221W (gene YDR221W): 0.6 | The level of expressed mRNA in the presence of chemical substance/absence: YDR250C (gene YDR250C): 0.8 | The level of expressed mRNA in the presence of chemical substance/absence: YDR271C (gene YDR271C): 0.7 | The level of expressed mRNA in the presence of chemical substance/absence: YDR278C (gene YDR278C): 0.6 | The level of expressed mRNA in the presence of chemical substance/absence: YDR281C (gene YDR281C): 0.9 | The level of expressed mRNA in the presence of chemical substance/absence: YDR316W (gene YDR316W): 0.6 | The level of expressed mRNA in the presence of chemical substance/absence: YDR338C (gene YDR338C): 0.8 | The level of expressed mRNA in the presence of chemical substance/absence: YDR366C (gene YDR366C): 0.6 | level of expressed mRNA in the presence of chemical substance/in its absence (gene YDR380W): 0.4 | level of expressed mRNA in the presence of chemical substance/in its absence (gene YDR410C): 0.9 | The level of expressed mRNA in the presence of chemical substance/absence: YDR421W (gene YDR421W): 0.7 | The level of expressed mRNA in the presence of chemical substance/absence: YDR425W (gene YDR425W): 1.1 | The level of expressed mRNA in the presence of chemical substance/absence: YDR485C (gene YDR485C): 0.9 | level of expressed mRNA in the presence of chemical substance/in its absence (gene YDR487C): 1.3 | level of expressed mRNA in the presence of chemical substance/in its absence (gene YDR502C): 1.3 | The level of expressed mRNA in the presence of chemical substance/absence: YDR504C (gene YDR504C): 0.7 | level of expressed mRNA in the presence of chemical substance/in its absence (gene YEL011W): 1.5 | level of expressed mRNA in the presence of chemical substance/in its absence (gene YEL020C): 0.8 | The level of expressed mRNA in the presence of chemical substance/absence: YEL044W (gene YEL044W): 0.6 | level of expressed mRNA in the presence of chemical substance/in its absence (gene YER026C): 1.7 | level of expressed mRNA in the presence of chemical substance/in its absence (gene YER069W): 0.8 | The level of expressed mRNA in the presence of chemical substance/absence: YER092W (gene YER092W): 0.9 | The level of expressed mRNA in the presence of chemical substance/absence: YER182W (gene YER182W): 1.0 | The level of expressed mRNA in the presence of chemical substance/absence: YFL042C (gene YFL042C): 0.9 | level of expressed mRNA in the presence of chemical substance/in its absence (gene YFR015C): 0.4 | The level of expressed mRNA in the presence of chemical substance/absence: YFR026C (gene YFR026C): 0.6 | The level of expressed mRNA in the presence of chemical substance/absence: YFR056C (gene YFR056C): 0.5 | level of expressed mRNA in the presence of chemical substance/in its absence (gene YGL001C): 0.9 | level of expressed mRNA in the presence of chemical substance/in its absence (gene YGL022W): 0.7 | level of expressed mRNA in the presence of chemical substance/in its absence (gene YGL039W): 1.3 | The level of expressed mRNA in the presence of chemical substance/absence: YGL041C (gene YGL041C): 0.6 | The level of expressed mRNA in the presence of chemical substance/absence: YGL045W (gene YGL045W): 1.1 | The level of expressed mRNA in the presence of chemical substance/absence: YGL057C (gene YGL057C): 1.1 | The level of expressed mRNA in the presence of chemical substance/absence: YGL088W (gene YGL088W): 0.6 | level of expressed mRNA in the presence of chemical substance/in its absence (gene YGL104C): 1.1 | level of expressed mRNA in the presence of chemical substance/in its absence (gene YGL126W): 0.6 | level of expressed mRNA in the presence of chemical substance/in its absence (gene YGL134W): 0.9 | level of expressed mRNA in the presence of chemical substance/in its absence (gene YGL154C): 0.9 | The level of expressed mRNA in the presence of chemical substance/absence: YGL183C (gene YGL183C): 0.9 | level of expressed mRNA in the presence of chemical substance/in its absence (gene YGL209W): 1.3 | The level of expressed mRNA in the presence of chemical substance/absence: YGL223C (gene YGL223C): 0.9 | level of expressed mRNA in the presence of chemical substance/in its absence (gene YGL253W): 1.2 | The level of expressed mRNA in the presence of chemical substance/absence: YGR038W (gene YGR038W): 1.0 | level of expressed mRNA in the presence of chemical substance/in its absence (gene YGR060W): 1.0 | The level of expressed mRNA in the presence of chemical substance/absence: YGR139W (gene YGR139W): 0.5 | The level of expressed mRNA in the presence of chemical substance/absence: YGR156W (gene YGR156W): 1.2 | The level of expressed mRNA in the presence of chemical substance/absence: YGR198W (gene YGR198W): 0.7 | The level of expressed mRNA in the presence of chemical substance/absence: YGR210C (gene YGR210C): 0.6 | The level of expressed mRNA in the presence of chemical substance/absence: YGR211W (gene YGR211W): 0.6 | The level of expressed mRNA in the presence of chemical substance/absence: YGR237C (gene YGR237C): 0.8 | The level of expressed mRNA in the presence of chemical substance/absence: YGR243W (gene YGR243W): 1.2 | The level of expressed mRNA in the presence of chemical substance/absence: YGR250C (gene YGR250C): 0.6 | The level of expressed mRNA in the presence of chemical substance/absence: YGR266W (gene YGR266W): 0.6 | The level of expressed mRNA in the presence of chemical substance/absence: YGR277C (gene YGR277C): 0.9 | level of expressed mRNA in the presence of chemical substance/in its absence (gene YGR282C): 1.3 | The level of expressed mRNA in the presence of chemical substance/absence: YGR293C (gene YGR293C): 1.0
